From US6617336B1, “2-arylquinoline derivatives, preparation and therapeutic use thereof” (Sanofi-Synthelabo, priority 1999, dated 2003)

melting point: 68 °C
SMILES: Cc1cc2cccc([C@H](CO)N3CCCC[C@H]3C)c2nc1-c1ccccc1.Cl
